# According to patent US9180107B2 (NANOPHARMACEUTICALS LLC, priority 2009, dated 2015):
# Columns and labels:
# [1] = tested on: Human adenoid cystic carcinoma TGS112T cells; test: [3H]-thymidine incorporation; format: cell-based; settings: 10^−7 M, 24 h
# Description: TGS112T cells were seeded in 24-well trays and exposed to 10% hormone-depleted FBS-supplemented medium for 2 d, then treated with 0.25% hormone-depleted FBS-supplemented medium prior to starting the experiments. Aliquots of cells were treated with T4, tetrac or nano-tetrac as indicated, as well as 1 μCi [^3H]-thymidine (final concentration, 13 nM) for 24 h. Cells were then washed twice with cold PBS. TCA (5%, 1 mL) was added and the plate was held at 4° C. for 30 min. The precipitate was washed twice with cold ethanol; 2% SDS (1 mL) was added to each well and the TCA-precipitable radioactivity was quantitated in a liquid scintillation counter.
# (§1) Human adenoid cystic carcinoma TGS112T cells were cultured in medium that contained 0.25% hormone-stripped serum for 2 d and then treated with 10^−7 M tetrac or nano-tetrac for 30 min prior institution of 10^−7 M T4 treatment for 24 h. Nuclear proteins were separated by SDS-PAGE followed by western blot analysis with proliferating-cell nuclear antigen (PCNA) antibody. Thyroid hormone-induced PCNA accumulation was inhibited by tetrac. (See FIG. 6A). […] (See FIG. 6A). Inhibition of thyroid hormone-induced proliferation was confirmed by inhibition by tetrac and nano-tetrac of thyroid hormone-induced accumulation and [^3H]-thymidine incorporation. (See FIG. 6B). […] (See FIG. 6B). […] The effect of nano-tetrac and tetrac on cell proliferation was examined by counting TGS112T cells which were treated daily with 10^−6 M tetrac or 10^−6 M nano-tetrac. […] (See FIG. 6C).
# [2] = tested on: Human adenoid cystic carcinoma TGS112T cells; test: PCNA western blot (thyroid hormone-induced proliferation); format: cell-based; settings: 10^−7 M, 24 h
# Excerpt: The techniques have been described in a number of publications. (See Davis et al., 2006. Cancer Res. 66:7270-7275; Lin et al., 2007. Steroids. 72:180-187; Lin et al., 2008. Carcinogenesis. 29:62-69; and Davis et al., 2004. Circ Res. 94:1500-1506, each of which is herein incorporated by reference in its entirety). Nucleoproteins were separated on discontinuous SDS-PAGE (9% gels) and the proteins transferred by electroblotting to nitrocellulose membranes (Millipore, Bedford, Mass.). After blocking with 5% milk in Tris-buffered saline containing 0.1% Tween, the membranes were incubated with selected primary antibodies overnight. The secondary antibodies were either goat anti-rabbit IgG (1:1000, Dako, Carpenteria, Calif.) or rabbit anti-mouse IgG (1:1000, Dako), depending upon the origin of the primary antibody. Immunoreactive proteins were then detected by chemiluminescence.
# as §1
compound,measurement,setting,value
"N[C@@H](Cc1cc(I)c(Oc2cc(I)c(O)c(I)c2)c(I)c1)C(=O)O [T4, L-thyroxine, reference compound]",effect of agent alone on thymidine incorporation,[1],increased thymidine incorporation
same,Proliferation of TGS112T cells (agent alone),[2],stimulated
